Measurements reported in PubChem BioAssay (NCI).
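Exposure lasted 48 hours, with cells grown in 96-well plates and compounds tested at five concentrations. At the GI50, growth is halved. TGI is the concentration that stops growth completely.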

Assays:
Test in all cases: NCI tumour cell line growth inhibition, 48 h
[1] = system: MDA-MB-468 breast
[2] = system: SK-MEL-2 melanoma
[3] = system: COLO 205 colon
[4] = system: T-47D breast
[5] = system: HCT-15 colon
[6] = system: NCI-H460 lung
[7] = system: NCI-H226 lung
[8] = system: LOX IMVI melanoma
[9] = system: MCF7 breast
[10] = system: HCC-2998 colon
[11] = system: A549 NSCLC
[12] = system: SR leukemia
[13] = system: SW-620 colon
[14] = system: EKVX NSCLC
[15] = system: CAKI-1 renal
[16] = system: HOP-62 NSCLC
[17] = system: UO-31 renal
[18] = system: OVCAR-8 ovarian
[19] = system: MALME-3M melanoma
[20] = system: RXF 393 renal
[21] = system: 786-0 renal
[22] = system: BT-549 breast
[23] = system: TK-10 renal
[24] = system: OVCAR-5 ovarian
[25] = system: RPMI-8226 leukemia
[26] = system: NCI-H23 lung
[27] = system: ACHN renal
[28] = system: OVCAR-3 ovarian
[29] = system: OVCAR-4 ovarian
[30] = system: A498 renal
[31] = system: SK-MEL-5 melanoma
[32] = system: SN12C renal
[33] = system: SF-268 CNS
[34] = system: MOLT-4 leukemia
[35] = system: DU-145 prostate
[36] = system: SF-539 CNS
[37] = system: SNB-19 CNS
[38] = system: SK-OV-3 ovarian
[39] = system: HCT-116 colon
[40] = system: K-562 leukemia
[41] = system: SK-MEL-28 melanoma
[42] = system: HT29 colon
[43] = system: HOP-92 NSCLC
[44] = system: SNB-75 CNS
[45] = system: UACC-257 melanoma
[46] = system: SF-295 CNS
[47] = system: NCI-H522 lung
[48] = system: MDA-MB-231 breast
[49] = system: MDA-MB-435
[50] = system: KM12 colon
[51] = system: CCRF-CEM leukemia
[52] = system: U251 CNS
[53] = system: PC-3 prostate
[54] = system: UACC-62 melanoma
[55] = system: IGROV1 ovarian
[56] = system: HL-60(TB) leukemia
[57] = system: M14 melanoma
[58] = system: HS 578T breast

CC1COCC(C)N1C1=C(Cl)C(=O)c2ccccc2C1=O (configuration not stated)
GI50 [1]: 1.59 µM | TGI [1]: 3.28 µM

Cc1nc(N)nc2ccccc12
GI50 [1]: > 100 µM | TGI [1]: > 100 µM

O=C(Nc1ccccc1C(=O)N/N=C(\c1ccccc1)c1ccccn1)c1ccc(F)cc1
GI50 [1]: 0.192 µM | TGI [1]: 1.11 µM

O=C(NCCCCCCCNC(=O)OCc1ccc2c(Cl)cc(Cl)c(O)c2n1)OCc1ccc2c(Cl)cc(Cl)c(O)c2n1
GI50 [1]: 0.389 µM | TGI [1]: 1.2 µM

Oc1[nH]c2cc(Cl)ccc2c1/C=c1/ccc2c(c1)N=C(c1cc(F)cc(F)c1)N=2
GI50 [1]: 2.51 µM | TGI [1]: 5.98 µM

O=c1c2ccccc2oc2ccc(OCCCCCCN3CCCCCC3)cc12
GI50 [1]: 1.97 µM | TGI [1]: 5.87 µM

C[C@@H](Nc1c(C#N)cnc2ccc(-c3cnc(N)nc3)cc12)c1ccccc1
GI50 [1]: 0.722 µM | TGI [1]: 5.8 µM

C=CC1CN2CCC1CC2C(O)c1ccnc2ccccc12 (configuration not stated)
GI50 [1]: > 100 µM | TGI [1]: > 100 µM

COc1cccc(/C=C/C(=O)c2cc3c(N)c(C(=O)Nc4cccc5ccccc45)sc3nc2C)c1
GI50 [1]: 1.07 µM | TGI [1]: 3 µM

Oc1ccc(Cl)cc1Cc1cc(Cl)ccc1O
GI50 [1]: 2.19 µM | TGI [1]: 7.29 µM

CC1(C)OC2C(COS(N)(=O)=O)SC(n3cnc4cncnc43)C2O1 (configuration not stated)
GI50 [1]: > 100 µM | TGI [1]: > 100 µM

COc1cccc(-c2c(C#N)c(-c3ccc(Cl)cc3)nc3n[nH]c(-c4ccc(Cl)cc4)c23)c1
GI50 [2]: 13.9 µM | TGI [2]: 30.1 µM | GI50 [3]: 11.3 µM | TGI [3]: 25.2 µM | GI50 [4]: 3.42 µM | TGI [4]: 77.8 µM | GI50 [5]: 4.16 µM | TGI [5]: 27.8 µM | GI50 [6]: 13.5 µM | TGI [6]: 46.7 µM | GI50 [7]: 11.9 µM | TGI [7]: 49.1 µM | GI50 [8]: 10.6 µM | TGI [8]: 28.9 µM | GI50 [9]: 6 µM | TGI [9]: > 100 µM | GI50 [10]: 6.14 µM | TGI [10]: 31 µM | GI50 [11]: 15.1 µM | TGI [11]: > 100 µM | GI50 [12]: 7.09 µM | TGI [12]: 50.3 µM | GI50 [13]: 21.2 µM | TGI [13]: > 100 µM | GI50 [14]: 11.8 µM | TGI [14]: > 100 µM | GI50 [15]: 7.91 µM | TGI [15]: 32.9 µM | GI50 [16]: 16.4 µM | TGI [16]: 80.6 µM | GI50 [17]: 2.38 µM | TGI [17]: 72.7 µM | GI50 [18]: 20.9 µM | TGI [18]: > 100 µM | GI50 [19]: 11.5 µM | TGI [19]: 31.7 µM | GI50 [20]: 11.5 µM | TGI [20]: 79.3 µM | GI50 [21]: 11.2 µM | TGI [21]: > 100 µM | GI50 [22]: 6.07 µM | TGI [22]: 27.4 µM | GI50 [1]: 19.1 µM | TGI [1]: > 100 µM | GI50 [23]: 38 µM | TGI [23]: > 100 µM | GI50 [24]: 11.2 µM | TGI [24]: 50.8 µM | GI50 [25]: 4.44 µM | TGI [25]: > 100 µM | GI50 [26]: 13.6 µM | TGI [26]: > 100 µM | GI50 [27]: 13.6 µM | TGI [27]: > 100 µM | GI50 [28]: 9.27 µM | TGI [28]: 80 µM | GI50 [29]: 4.96 µM | TGI [29]: 86.4 µM | GI50 [30]: 33.3 µM | TGI [30]: > 100 µM | GI50 [31]: 12.4 µM | TGI [31]: 26.3 µM | GI50 [32]: 12 µM | TGI [32]: > 100 µM | GI50 [33]: 14.8 µM | TGI [33]: > 100 µM | GI50 [34]: 3.45 µM | TGI [34]: 49.2 µM | GI50 [35]: 21 µM | TGI [35]: > 100 µM | GI50 [36]: 8.28 µM | TGI [36]: 25.9 µM | GI50 [37]: 20 µM | TGI [37]: > 100 µM | GI50 [38]: 18.1 µM | TGI [38]: 98.7 µM | GI50 [39]: 4.66 µM | TGI [39]: 26.2 µM | GI50 [40]: 4.01 µM | TGI [40]: 78.6 µM | GI50 [41]: 17.8 µM | TGI [41]: 74.8 µM | GI50 [42]: 9.76 µM | TGI [42]: 29.8 µM | GI50 [43]: 2.35 µM | TGI [43]: 9.24 µM | GI50 [44]: 12.7 µM | TGI [44]: 64.3 µM | GI50 [45]: 22.7 µM | TGI [45]: 93.3 µM | GI50 [46]: 12.1 µM | TGI [46]: 33 µM | GI50 [47]: 16.1 µM | TGI [47]: 92.7 µM | GI50 [48]: 12.8 µM | TGI [48]: 35.1 µM | GI50 [49]: 13.4 µM | TGI [49]: 37.2 µM | GI50 [50]: 8.81 µM | TGI [50]: > 100 µM | GI50 [51]: 6.56 µM | TGI [51]: > 100 µM | GI50 [52]: 13.6 µM | TGI [52]: > 100 µM | GI50 [53]: 3.19 µM | TGI [53]: > 100 µM | GI50 [54]: 12.6 µM | TGI [54]: 29.1 µM | GI50 [55]: 16 µM | TGI [55]: 68 µM | GI50 [56]: 4.77 µM | TGI [56]: 43.5 µM | GI50 [57]: 9.82 µM | TGI [57]: 34.1 µM | GI50 [58]: 11.1 µM | TGI [58]: 89.6 µM

Cc1ccc(C(C)C)cc1NC(=O)Nc1ccc([N+](=O)[O-])cc1
GI50 [1]: 2.39 µM | TGI [1]: 6.82 µM

CC1(C)CC[C@]2(C(N)=O)CC[C@]3(C)C(=CC[C@@H]4[C@@]5(C)C/C(=C/c6ccncc6)C(=O)C(C)(C)[C@@H]5CC[C@]43C)[C@@H]2C1
GI50 [1]: 2.33 µM | TGI [1]: 7.44 µM

COc1cc(NC(=O)Nc2cnc(Nc3ccc(N4CCOCC4)cc3)nc2Oc2cccc(OC)c2)cc(OC)c1
GI50 [1]: 1.74 µM | TGI [1]: 9.54 µM

Cc1cc(C(O)CN(C)C)cc2c1ccc1cc(C(C)C)ccc12 (configuration not stated)
GI50 [1]: 1.85 µM | TGI [1]: 3.47 µM

CCOc1cc(-c2ccc[nH]2)[nH]c1/C=C1\N=C(C)C(C(=O)OC)=C1C
GI50 [1]: 0.0583 µM | TGI [1]: 0.444 µM

CC(=O)Oc1ccc(/C=N/NC(N)=S)nc1
GI50 [1]: 2.75 µM | TGI [1]: 15.3 µM

CN1CCN(c2nc(-c3ccncc3)nc3sc4c(c23)CCCCCC4)CC1
GI50 [1]: 5.2 µM | TGI [1]: 20.2 µM

CO[C@@]12[C@@H]3NC3CN1C1=C(C(=O)C(N)=C(C)C1=O)[C@@H]2COC(N)=O (some centres not stated)
GI50 [1]: 0.238 µM | TGI [1]: 1.28 µM

COc1ccc(CCc2cc(OC)c(OC)c(OC)c2)cc1
GI50 [1]: 0.0599 µM | TGI [1]: > 100 µM

COc1cc([N+](=O)[O-])c2ncccc2c1[N+](=O)[O-]
GI50 [1]: 1.72 µM | TGI [1]: 3.67 µM

CO[C@]1(CN2CCN3CCCC[C@@H]3C2)/C=C/C[C@H](C)[C@@H](C)S(=O)(=O)NC(=O)c2ccc3c(c2)N(C[C@@H]2CC[C@H]21)C[C@@]1(CCCc2cc(Cl)ccc21)CO3
GI50 [1]: 0.166 µM | TGI [1]: 1.24 µM

CC/C=C\C/C=C\C[C@H](O)C/C=C1/C(=O)C=C[C@@H]1C/C=C\CCCC(=O)OC
GI50 [1]: 1.47 µM | TGI [1]: 3.16 µM

Nc1[nH]c(=O)ncc1CO
GI50 [1]: > 100 µM | TGI [1]: > 100 µM

Cc1cc(Cl)ccc1NS(=O)(=O)c1ccc(-c2cnc(C3CC3)o2)cc1
GI50 [1]: 0.0861 µM | TGI [1]: 13.7 µM

CCC(CC(C)C)Nc1ccc(NC(CC)CC(C)C)cc1 (configuration not stated)
GI50 [1]: 11.7 µM | TGI [1]: 24 µM

O=S(=O)(NCCCNc1nccc(-c2[nH]c(-c3ccccc3)nc2-c2ccc(F)c(O)c2)n1)c1ccc(C(F)(F)F)cc1
GI50 [1]: 2.44 µM | TGI [1]: 7.7 µM

O=C(Nc1cccc(-n2cc(-c3ccncc3)c(-c3ccc(O)c(Cl)c3)n2)c1)c1cccc(C(F)(F)F)c1
GI50 [1]: 3.19 µM | TGI [1]: > 100 µM
